Holding throughout (type): functional
For assay [1], the system named is Staphylococcus aureus. Nature of the assay: Antibacterial activity against multidrug-resistant Staphylococcus aureus after 18 hrs by dilution method.
Assay [2] relates to Staphylococcus aureus. The assay is described as follows: Antibacterial activity against methicillin-resistant Staphylococcus aureus after 18 hrs by dilution method.
Assay [3] has as its system Staphylococcus aureus. The assay is described as follows: Antibacterial activity against Staphylococcus aureus after 18 hrs by dilution method.

Usually MIC stands for the lowest concentration that inhibits growth of the organism.

Converted amounts (≈) assume the structure as drawn.

Take `C/C=C(\C)[C@H]1[C@@H](/C=C/C=C(\C)[C@@H](O)[C@@H](C)CO)[C@@H]2C[C@@H](Cl)[C@](C)(O)C[C@H]2[C@@H]2O[C@@]21C` [DEHYDROXYCHLOROFUSARIELIN B]: the MIC with Staphylococcus aureus [1], against Staphylococcus aureus [2] and against Staphylococcus aureus [3] was 62.5 µg/mL (≈ 142 µM) in each case.
Regarding `C/C=C(\C)[C@H]1[C@@H](/C=C/C=C(\C)[C@@H](O)[C@@H](C)CO)[C@@H]2C[C@@H]3O[C@]3(C)C[C@H]2[C@@H]2O[C@@]21C` [FUSARIELIN A], the values for the MIC with Staphylococcus aureus [1], against Staphylococcus aureus [2] and against Staphylococcus aureus [3] were 62.5 µg/mL (≈ 155 µM), 32.5 µg/mL (≈ 80.7 µM) and 32.5 µg/mL (≈ 80.7 µM), respectively.
Regarding `C/C=C(\C)[C@H]1[C@@H](/C=C/C=C(\C)[C@@H](O)[C@@H](C)CO)[C@@H]2C[C@@H](O)[C@](C)(O)C[C@H]2[C@@H]2O[C@@]21C` [FUSARIELIN B], the MIC against Staphylococcus aureus [1], with Staphylococcus aureus [2] and against Staphylococcus aureus [3] was 62.5 µg/mL (≈ 149 µM) in each case.

The values above are taken from ChEMBL document CHEMBL1145413, “Dehydroxychlorofusarielin B, an antibacterial polyoxygenated decalin derivative from the marine-derived fungus Aspergillus sp” (2007).
